Values of other authors as cited in patent US20140220138A1, “ENHANCED NITRIC OXIDE DELIVERY AND USES THEREOF” (Albert Einstein College of Medicine of Yeshiva University, priority 2011, published 2014).
Values after ≈ are worked out from the molar mass of the structure shown.

| MIC90 (E. coli (ATCC 25922)) | SMILES | reduction in Bacillus viability (Bacillus subtilis; 20-25 μM NO repetitively added over time) | viability after exposure to NO (Bacillus subtilis; exposure to either 50 or 200 μM NO) |
| --- | --- | --- | --- |
| – | [N]=O [NO, nitric oxide] | 100 fold | no significant loss in viability |
| 5 mM (≈ 1680 µg/mL) | N[C@@H](CCC(=O)N[C@@H](CSN=O)C(=O)NCC(=O)O)C(=O)O [GSNO, S-nitrosoglutathione] | – | – |
